We go through 1 compound from patent US20060074109A1, “Use of inhibitors of 24-hydroxylase in the treatment of cancer” (Sapphire Therapeutics, Inc., priority 2004, published 2006).

SMILES strings stand for the structures.

Assay [1] relates to ovarian cancer cell lines. Description: Cell growth assay, crystal violet, 11 days, all cell lines. Format: cell-based, human. As to conditions: 200 nM VID 400 alone. The procedure: The human ovarian adenocarcinoma cell line, OVCAR-3 (ATCC, Manassas, Va.) was maintained, as recommended by the supplier, in RPMI 1640 medium (Sigma Aldrich, St. Louis, Mo.) supplemented with 10% FBS, 10 μg/ml insulin, 0.25% glucose and antibiotics (100 IU/ml penicillin, 100 μg/ml streptomycin). Human ovarian adenocarcinoma cell lines UT-OC-1, UT-OC-2, UT-OC-3, UT-OC-4, UT-OC-5 (Grenman, S., Engblom, P., Rantanen, V., Klemi, P. and Isola, J., “Cytogenetic Characterization of Five New Ovarian Carcinoma Cell Lines,” Acta Obstet. Gynecol. Scand., 76:83 (1997)) and SK-OV-3 and a human keratinocyte cell line HaCaT were grown in DMEM (Sigma Aldrich) with 10% FBS and antibiotics (100 IU/ml penicillin, 100 μg/ml streptomycin), and monkey kidney COS cells were maintained in DMEM/F12 (Sigma Aldrich) with 5% FBS. […]
Relative cell numbers were quantified as described previously (Kueng W, Silber E, Eppenberger U. Quantification of cells cultured on 96-well plates. Anal. Biochem., 182:16-9 (1989)). […] Relative cell number was given as absorbance units by measuring the optical density (590 nm) from each well using Victor 1420 multilabel counter (Wallac, Turku, Finland). […] The absorbance value of day 0 (an overnight culture of 2,000 cells/well) was set as 0 by subtracting it from each value obtained from adjacent time-point measurements (days 1-11), and based on these values growth curves were created. […]

For assay [2], the system named is DU145 prostate cancer cells. Description: Cell growth, methylene blue uptake (Experiment VI). Format: cell-based. As to conditions: VID400+calcitriol. The procedure:
(§1) Culture conditions were the same as for Experiment I. Cell growth was measured using uptake of methylene blue (0.5% in 50% ethanol), followed by air drying and release of the dye in 1% sodium N-lauroyl sarcosine in PBS.

In assay [3] the test system is PC3 prostate cancer cells. The assay can be described thus: Cell growth, methylene blue uptake (Experiment VI). The class given is cell-based. As to conditions: VID400+calcitriol. The procedure: as §1
For assay [4], the system named is CWR22Rv-1 prostate cancer cells. Description: Cell growth, methylene blue uptake (Experiment VI). The class given is cell-based. As to conditions: VID400+calcitriol. The procedure: as §1
Another assay has as its target T1, 24-hydroxylase (Homo sapiens, UniProt Q07973).
T1 sequence (Q07973 36-514): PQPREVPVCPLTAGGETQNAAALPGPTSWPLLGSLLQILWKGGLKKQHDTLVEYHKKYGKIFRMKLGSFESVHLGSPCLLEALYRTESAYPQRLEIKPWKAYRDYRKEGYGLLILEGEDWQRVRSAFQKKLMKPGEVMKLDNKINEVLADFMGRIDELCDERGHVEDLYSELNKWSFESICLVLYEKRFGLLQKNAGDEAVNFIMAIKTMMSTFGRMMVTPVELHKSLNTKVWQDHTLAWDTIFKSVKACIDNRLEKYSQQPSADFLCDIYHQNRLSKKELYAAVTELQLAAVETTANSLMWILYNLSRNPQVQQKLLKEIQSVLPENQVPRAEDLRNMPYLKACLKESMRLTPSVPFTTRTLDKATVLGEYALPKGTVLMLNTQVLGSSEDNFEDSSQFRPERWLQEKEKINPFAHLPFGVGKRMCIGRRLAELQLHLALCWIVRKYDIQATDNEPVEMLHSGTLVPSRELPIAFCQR
As to conditions: Schuster et al., J. Cell. Biochem. 88:372-380 (2003); cited from earlier work.

The test system of the next assay is UT-OC-5 cells. The assay can be described thus: Cell growth assay, crystal violet, 11 days. The class given is cell-based, human. As to conditions: 200 nM VID 400 combined with hormones, especially 1,25(OH)2D3 or EB 1089, 11 days. The procedure: (§2) The human ovarian adenocarcinoma cell line, OVCAR-3 (ATCC, Manassas, Va.) was maintained, as recommended by the supplier, in RPMI 1640 medium (Sigma Aldrich, St. Louis, Mo.) supplemented with 10% FBS, 10 μg/ml insulin, 0.25% glucose and antibiotics (100 IU/ml penicillin, 100 μg/ml streptomycin). Human ovarian adenocarcinoma cell lines UT-OC-1, UT-OC-2, UT-OC-3, UT-OC-4, UT-OC-5 (Grenman, S., Engblom, P., Rantanen, V., Klemi, P. and Isola, J., “Cytogenetic Characterization of Five New Ovarian Carcinoma Cell Lines,” Acta Obstet. Gynecol. Scand., 76:83 (1997)) and SK-OV-3 and a human keratinocyte cell line HaCaT were grown in DMEM (Sigma Aldrich) with 10% FBS and antibiotics (100 IU/ml penicillin, 100 μg/ml streptomycin), and monkey kidney COS cells were maintained in DMEM/F12 (Sigma Aldrich) with 5% FBS. All cell lines were kept at 37° C. in a humidified 95% air/5% CO2 incubator.
(§3) When OVCAR-3 cells were on the logarithmic growth phase (70% confluent) the growth assay was started. For cell growth assay, 2,000 cell/200 μl/well were plated on 96-well culture plates. […] Ethanol was used as a vehicle, and it was also included in the control. The medium containing ethanol vehicle and/or hormones were changed to a fresh one every third day. Cell growth samples were taken 0, 1, 3, 5, 7, 9 and 11 days after the treatment.
(§4) Relative cell numbers were quantified as described previously (Kueng W, Silber E, Eppenberger U. Quantification of cells cultured on 96-well plates. Anal. Biochem., 182:16-9 (1989)). Cells were fixed on the bottom of the wells by addition of 10 μl of 11% glutaraldehyde solution in 0.1% phosphate buffer to 100 μl of medium. The plate was shaken 500 cycles/min for 15 min, washed 3 times by submersion in de-ionised water and air-dried. Fixed cells were stained with 0.1% solution of crystal violet dissolved in de-ionised water. After 20 min incubation, excess dye was removed by carefully washing with de-ionised water. The plate was air-dried prior to a bound dye solubilisation in 100 μl of 10% acetic acid. Relative cell number was given as absorbance units by measuring the optical density (590 nm) from each well using Victor 1420 multilabel counter (Wallac, Turku, Finland). Six determinations were used to calculate the mean optical density ±SD in each concentration at each time point. The absorbance value of day 0 (an overnight culture of 2,000 cells/well) was set as 0 by subtracting it from each value obtained from adjacent time-point measurements (days 1-11), and based on these values growth curves were created. Experiments were repeated 3-5 times. Day 11 was used to compare the effect of hormone treatments and 24OHase inhibitor. Statistical analyses were done using Student's t-test.
(§5) Cell growth samples were obtained after 11 days treatment.

In the next assay the test system is SK-OV-3 cells. The assay can be described thus: Cell growth assay, crystal violet, 11 days. The class given is cell-based, human. The procedure: as §2, §3, §4, §5
In a further assay the test system is UT-OC-3 cells. The assay can be described thus: Cell growth assay, crystal violet, 11 days. The class given is cell-based, human. As to conditions: 200 nM VID 400 combined with vitamin D or retinoid compounds. The procedure: as §2, §3, §4, §5
The next assay deals with UT-OC-4 cells. The assay can be described thus: Cell growth assay, crystal violet, 11 days. Format: cell-based, human. The procedure: as §2, §3, §4, §5
The subject of another assay is UT-OC-2 cells. Description: Cell growth assay, crystal violet, 11 days. Format: cell-based, human. As to conditions: 200 nM VID 400 combined with vitamin D or retinoid compounds. The procedure: as §2, §3, §4, §5
The next assay deals with UT-OC-1 cells. The assay can be described thus: Cell growth assay, crystal violet, 11 days. The class given is cell-based, human. The procedure:
as §2, §3, §4, §5

As for `O=C(NC[C@@H](c1ccccc1)n1ccnc1)c1ccc(-c2ccc(Cl)cc2)cc1` [VID400, 2-(R)-4′-Chlorobiphenyl-4-carboxylic acid (2-imidazol-1-yl-2-phenyl-ethyl)-amide], the “effect on cell growth” value in [1] was “varied from slight stimulation to growth inhibition”; in [2], “synergistic inhibition of growth”; in assay [3] it was “synergistic inhibition of growth”; in assay [4] it was “synergistic inhibition of growth”; in the assay on UT-OC-5 cells, “had an inhibitory effect on growth”; in the assay on SK-OV-3 cells (200 nM VID 400 combined with vitamin D compounds), “slightly inhibitory effect on growth”. Further, the “effect on cell growth” value in the assay on UT-OC-3 cells is given as “growth inhibition was seen”; in the assay on UT-OC-4 cells (200 nM VID 400 combined with 100 nM 1,25(OH)2D3 or EB 1089, 11 days), “cell growth was inhibited”; in the assay with UT-OC-2 cells, “growth inhibition was seen”. Also, the “inhibition of 24-hydroxylase” value on 24-hydroxylase is “potent inhibitors of 24-hydroxylase”. Moreover, the “effect on growth inhibition” value is listed as “potentiated this effect” with SK-OV-3 cells (200 nM VID 400 combined with 9-CRA); “potentiated this effect” in the assay on UT-OC-4 cells (200 nM VID 400 combined with 10 μM ATRA or 9-CRA, 11 days); “augmented the growth inhibition” in the assay with UT-OC-1 cells (200 nM VID 400 combined with 10 μM 9-CRA, 11 days). For the same compound, the “inhibition of cell growth” value with UT-OC-1 cells (200 nM VID 400 combined with 100 nM EB 1089, 11 days) is on record as “did so”. Besides, the “augmentation of growth inhibition” value in the assay on UT-OC-1 cells (200 nM VID 400 combined with 10 μM ATRA, 11 days) is given as “not seen”.
